≈ marks a conversion by molar mass, not a printed value.
How the values were obtained:
Details in all cases: read-out: ED50 (the source's name)
A549 = experiment: Cytotoxicity against human A549 cells; assay type: functional
SK-OV-3 = experiment: Cytotoxicity against human SKOV3 cells; assay type: functional
SK-MEL-2 = experiment: Cytotoxicity against human SK-MEL-2 cells; assay type: functional
XF498 = experiment: Cytotoxicity against human XF498 cells; assay type: functional
[1] = test system: HCT-15 (human colon cancer); experiment: Cytotoxicity against human HCT15 cells

CC(C)C/C=C/[C@@H](C)[C@H]1CCC2C3=CC(=O)O[C@@]3(O)CC[C@@]21C (stereo not given in full) [DEMETHYLINCISTEROL A1]
EC50 (A549): 2.79 µg/mL (≈ 8.76 µM)
EC50 (SK-OV-3): 1.7 µg/mL (≈ 5.34 µM)
EC50 (SK-MEL-2): 1.94 µg/mL (≈ 6.09 µM)
EC50 (XF498): 1.08 µg/mL (≈ 3.39 µM)
EC50 [1]: 1.42 µg/mL (≈ 4.46 µM)

CC(C)[C@H](C)/C=C/[C@@H](C)[C@H]1CCC2C3=CC(=O)O[C@@]3(O)CC[C@@]21C (stereo not given in full) [DEMETHYLINCISTEROL A2]
EC50 (A549): 1.51 µg/mL (≈ 4.54 µM)
EC50 (SK-OV-3): 1.49 µg/mL (≈ 4.48 µM)
EC50 (SK-MEL-2): 1.21 µg/mL (≈ 3.64 µM)
EC50 (XF498): 0.93 µg/mL (≈ 2.8 µM)
EC50 [1]: 1.28 µg/mL (≈ 3.85 µM)

CC(C)[C@@H](C)/C=C/[C@@H](C)[C@H]1CCC2C3=CC(=O)O[C@@]3(O)CC[C@@]21C (stereo not given in full) [DEMETHYLINCISTEROL A3]
EC50 (A549): 1.62 µg/mL (≈ 4.87 µM)
EC50 (SK-OV-3): 1.97 µg/mL (≈ 5.93 µM)
EC50 (SK-MEL-2): 1.3 µg/mL (≈ 3.91 µM)
EC50 (XF498): 1.14 µg/mL (≈ 3.43 µM)
EC50 [1]: 1.39 µg/mL (≈ 4.18 µM)

CC[C@@H](/C=C/[C@@H](C)[C@H]1CCC2C3=CC(=O)O[C@@]3(O)CC[C@@]21C)C(C)C (stereo not given in full) [DEMETHYLINCISTEROL A4]
EC50 (A549): 0.92 µg/mL (≈ 2.66 µM)
EC50 (SK-OV-3): 0.79 µg/mL (≈ 2.28 µM)
EC50 (SK-MEL-2): 0.55 µg/mL (≈ 1.59 µM)
EC50 (XF498): 0.68 µg/mL (≈ 1.96 µM)
EC50 [1]: 0.65 µg/mL (≈ 1.88 µM)

COc1cccc2c1C(=O)c1c(O)c3c(c(O)c1C2=O)C[C@@](O)(C(=O)CO)C[C@@H]3O[C@H]1C[C@H](N)[C@H](O)[C@H](C)O1 [DOXORUBICIN]
EC50 (A549): 0.11 µg/mL (≈ 0.202 µM)
EC50 (SK-OV-3): 0.09 µg/mL (≈ 0.166 µM)
EC50 (SK-MEL-2): 0.04 µg/mL (≈ 0.0736 µM)
EC50 (XF498): 0.07 µg/mL (≈ 0.129 µM)
EC50 [1]: 0.17 µg/mL (≈ 0.313 µM)

CCCCO[C@@H]1C=C2[C@@H]3CC[C@H]([C@H](C)/C=C/CC(C)C)[C@@]3(C)CC[C@@H]2[C@@]2(C)CC[C@H](O)C[C@]12O [HOMAXISTEROL A1]
EC50 (A549): 8.54 µg/mL (≈ 18.1 µM)
EC50 (SK-OV-3): 7.57 µg/mL (≈ 16 µM)
EC50 (SK-MEL-2): 6.88 µg/mL (≈ 14.6 µM)
EC50 (XF498): 6.33 µg/mL (≈ 13.4 µM)
EC50 [1]: 7.62 µg/mL (≈ 16.1 µM)

CCCCO[C@@H]1C=C2[C@@H]3CC[C@H]([C@H](C)/C=C/[C@@H](C)C(C)C)[C@@]3(C)CC[C@@H]2[C@@]2(C)CC[C@H](O)C[C@]12O [HOMAXISTEROL A2]
EC50 (A549): 6.23 µg/mL (≈ 12.8 µM)
EC50 (SK-OV-3): 4.43 µg/mL (≈ 9.1 µM)
EC50 (SK-MEL-2): 3.69 µg/mL (≈ 7.58 µM)
EC50 (XF498): 4.17 µg/mL (≈ 8.57 µM)
EC50 [1]: 4.4 µg/mL (≈ 9.04 µM)

CCCCO[C@@H]1C=C2[C@@H]3CC[C@H]([C@H](C)/C=C/[C@H](C)C(C)C)[C@@]3(C)CC[C@@H]2[C@@]2(C)CC[C@H](O)C[C@]12O [HOMAXISTEROL A3]
EC50 (A549): 8.42 µg/mL (≈ 17.3 µM)
EC50 (SK-OV-3): 7.85 µg/mL (≈ 16.1 µM)
EC50 (SK-MEL-2): 6.1 µg/mL (≈ 12.5 µM)
EC50 (XF498): 5.03 µg/mL (≈ 10.3 µM)
EC50 [1]: 7.1 µg/mL (≈ 14.6 µM)

CCCCO[C@@H]1C=C2[C@@H]3CC[C@H]([C@H](C)/C=C/[C@H](CC)C(C)C)[C@@]3(C)CC[C@@H]2[C@@]2(C)CC[C@H](O)C[C@]12O [HOMAXISTEROL A4]
EC50 (A549): > 30 µg/mL
EC50 (SK-OV-3): > 30 µg/mL
EC50 (SK-MEL-2): > 30 µg/mL
EC50 (XF498): 34.1 µg/mL (≈ 68.1 µM)
EC50 [1]: > 30 µg/mL

Source: ChEMBL document CHEMBL1158695, “Cytotoxic sterol derivatives from a marine sponge Homaxinella sp” (2005)
